In US20260000656A1, “ANTIFUNGAL AGENTS WITH ENHANCED ACTIVITY IN ACIDIC PH” (Scynexis, Inc., priority 2017, published 2026):
Where two headings read alike, the source gives them in different places. Numbered stars: 1 amine (or outer) side, 2 acyl side, 3 side chain; on linkers, the order of the positions; unused ones are H or OH. Bridge positions count the residues as written; N and C are the ends. Square brackets hold non-standard residues; d marks the D form. Peptide text beside a SMILES is read from it. * marks the point of attachment. hTyr(3S-OH,4S-OH,3'-OSO3H) = N[C@H](C(=O)O)[C@H](O)[C@@H](O)c1ccc(O)c(OS(=O)(=O)O)c1; Orn(4R-OH,5R-OH) = O=C([C@H](C[C@@H](O)[C@@H](O)N[*:3])N[*:1])[*:2]; Pro(3S-OH,4S-Me) = C[C@H]1CN[C@H](C(=O)O)[C@H]1O; X1 = CCCCCOc1ccc(-c2cc(-c3ccc(C(=O)*)cc3)no2)cc1; Gln(3R-OH) = NC(=O)C[C@@H](O)[C@H](N)C(=O)O; Hyp = O=C(O)[C@@H]1C[C@@H](O)CN1

Tested on: C. glabrata isolates
Assay: Broth microdilution susceptibility (CLSI M27-A3) at different medium pH
Format: cell-based, Candida glabrata
Conditions: for MIC range: 50% inhibition, 10 vaginal isolates; for MIC50 / MIC90 / MIC: Nakaseomyces glabratus, 24 h
Experimental: Ten strains each of C. glabrata and C. albicans vaginal isolates were tested. The strains were obtained from recent clinical trial patients with vulvovaginal candidiasis (VVC) prior to treatment. Candida strains were obtained from the Mycology Reference Library (MRL) at Case Western Reserve University School of Medicine, Ohio, United States.
Susceptibility testing was performed using a broth microdilution method, according to CLSI M27-A3 guidelines (CLSI. 2008. Reference Method for Broth Dilution Antifungal Susceptibility Testing of Yeasts; Approved Standard—Third Edition. Clinical and Laboratory Standards Institute, CLSI document M27-A3). Antifungals and concentrations tested were SCY-078 and micafungin (both at concentrations within the range of 0.015 to 8 μg/ml) and fluconazole (at concentrations within the range of 0.125 to 64 μg/ml). A 0.1-ml C. albicans and C. glabrata inoculum of 0.5-2.5×10^3 blastospores/ml in RPMI 1640 medium was added to each microdilution well. ATCC strains of Candida parapsilosis and Candida krusei QC isolates were also included concurrently to ensure quality control. Antifungal susceptibility testing was carried out for each isolate in RPMI 1640 at pH 7 (to mimic RPMI medium used in testing the susceptibility of yeast by the CLSI M-27A3 document), pH 5.7, and pH 4.5 (to mimic the pH of the vaginal cavity) by adjusting the pH of the media using NaOH or HCl. […] Agents Chemother., 43: 1383-1386 (1999).
[…] SCY-078 powder was manufactured by Avista, Laboratories, NC. Micafungin and fluconazole were sourced from LGM Pharma.

CCCCCOc1ccc(-c2cc(-c3ccc(C(=O)N[C@H]4C[C@@H](O)[C@@H](O)NC(=O)[C@@H]5[C@@H](O)[C@@H](C)CN5C(=O)[C@H]([C@H](O)CC(N)=O)NC(=O)[C@H]([C@H](O)[C@@H](O)c5ccc(O)c(OS(=O)(=O)O)c5)NC(=O)[C@@H]5C[C@@H](O)CN5C(=O)[C@H]([C@@H](C)O)NC4=O)cc3)no2)cc1 [Micafungin, reference compound] (X1-[Orn(4R-OH,5R-OH)]T[Hyp][hTyr(3S-OH,4S-OH,3'-OSO3H)][Gln(3R-OH)][Pro(3S-OH,4S-Me)]; lactam 1-C)
0.25 to 0.5 µg/mL: MIC range (pH 7.0, 24 h)
0.25 µg/mL: MIC range (pH 4.5, 24 h) | MIC range (pH 5.72, 24 h) | MIC50 (pH 4.5) | MIC90 (pH 4.5) | MIC (pH 4.5, read-out: MIC (50% inhibition), C. glabrata MRL 32075, pH 4.5, 24 hours) | MIC (pH 4.5, read-out: MIC (50% inhibition), C. glabrata MRL 32232, pH 4.5, 24 hours) | MIC (pH 4.5, read-out: MIC (50% inhibition), C. glabrata MRL 32626, pH 4.5, 24 hours) | MIC (pH 4.5, read-out: MIC (50% inhibition), C. glabrata MRL 32993, pH 4.5, 24 hours) | MIC (pH 4.5, read-out: MIC (50% inhibition), C. glabrata MRL 33204, pH 4.5, 24 hours) | MIC (pH 4.5, read-out: MIC (50% inhibition), C. glabrata MRL 33960, pH 4.5, 24 hours) | MIC (pH 4.5, read-out: MIC (50% inhibition), C. glabrata MRL 33961, pH 4.5, 24 hours) | MIC (pH 4.5, read-out: MIC (50% inhibition), C. glabrata MRL 34339, pH 4.5, 24 hours) | MIC (pH 4.5, read-out: MIC (50% inhibition), C. glabrata MRL 34407, pH 4.5, 24 hours) | MIC (pH 4.5, read-out: MIC (50% inhibition), C. glabrata MRL 34576, pH 4.5, 24 hours) | MIC50 (pH 5.72) | MIC90 (pH 5.72) | MIC (pH 5.72, read-out: MIC (50% inhibition), C. glabrata MRL 32075, pH 5.72, 24 hours) | MIC (pH 5.72, read-out: MIC (50% inhibition), C. glabrata MRL 32232, pH 5.72, 24 hours) | MIC (pH 5.72, read-out: MIC (50% inhibition), C. glabrata MRL 32626, pH 5.72, 24 hours) | MIC (pH 5.72, read-out: MIC (50% inhibition), C. glabrata MRL 32993, pH 5.72, 24 hours) | MIC (pH 5.72, read-out: MIC (50% inhibition), C. glabrata MRL 33204, pH 5.72, 24 hours) | MIC (pH 5.72, read-out: MIC (50% inhibition), C. glabrata MRL 33960, pH 5.72, 24 hours) | MIC (pH 5.72, read-out: MIC (50% inhibition), C. glabrata MRL 33961, pH 5.72, 24 hours) | MIC (pH 5.72, read-out: MIC (50% inhibition), C. glabrata MRL 34339, pH 5.72, 24 hours) | MIC (pH 5.72, read-out: MIC (50% inhibition), C. glabrata MRL 34407, pH 5.72, 24 hours) | MIC (pH 5.72, read-out: MIC (50% inhibition), C. glabrata MRL 34576, pH 5.72, 24 hours) | MIC50 (pH 7) | MIC (pH 7, read-out: MIC (50% inhibition), C. glabrata MRL 32075, pH 7.0, 24 hours) | MIC (pH 7, read-out: MIC (50% inhibition), C. glabrata MRL 32993, pH 7.0, 24 hours) | MIC (pH 7, read-out: MIC (50% inhibition), C. glabrata MRL 33204, pH 7.0, 24 hours) | MIC (pH 7, read-out: MIC (50% inhibition), C. glabrata MRL 33961, pH 7.0, 24 hours) | MIC (pH 7, read-out: MIC (50% inhibition), C. glabrata MRL 34339, pH 7.0, 24 hours) | MIC (pH 7, read-out: MIC (50% inhibition), C. glabrata MRL 34407, pH 7.0, 24 hours) | MIC (pH 7, read-out: MIC (50% inhibition), C. glabrata MRL 34576, pH 7.0, 24 hours)
0.5 µg/mL: MIC90 (pH 7) | MIC (pH 7, read-out: MIC (50% inhibition), C. glabrata MRL 32232, pH 7.0, 24 hours) | MIC (pH 7, read-out: MIC (50% inhibition), C. glabrata MRL 32626, pH 7.0, 24 hours) | MIC (pH 7, read-out: MIC (50% inhibition), C. glabrata MRL 33960, pH 7.0, 24 hours)
